ChEMBL document CHEMBL1909294, “Translating clinical findings into knowledge in drug safety evaluation--drug induced liver injury prediction system (DILIps)” (PLoS Comput Biol, 2011)

How the values were obtained:
Hepatotoxicity [1] = system: Hepatotoxicity;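 for HepSE Combined Scores: combined hepatic side effect score as listed in the training data of the Drug Induced Liver Injury Prediction System (DILIps)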;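 for HepSE cholecystitis: Cholecystitis-related hepatic side effect score drawn from the DILIps (drug-induced liver injury prediction) training data set; call rule not given here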;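 for HepSE cholelithiasis: hepatic side effect score for cholelithiasis, drawn from the DILIps training data for predicting drug-induced liver injury; call rule not given here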;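 for HepSE cirrhosis: cirrhosis hepatic side effect score taken from the DILIps (drug-induced liver injury prediction) training set; call rule not given here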;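 for HepSE hepatic necrosis: score of hepatic side effects for hepatic necrosis, drawn from the training data of DILIps, a prediction system for drug-induced liver injury; call rule not given here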; for HepSE liver disease: call rule not given here;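 for HepSE liver function tests abnormal: hepatic side effect score taken from the DILIps (drug-induced liver injury prediction system) training data, here covering abnormal liver function test findings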
Hepatotoxicity [2] = system: Hepatotoxicity; remark: listed apart in the source;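 for HepSE cholecystitis: Cholecystitis-related hepatic side effect score drawn from the DILIps (drug-induced liver injury prediction) training data set; call rule not given here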;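 for HepSE cholelithiasis: hepatic side effect score for cholelithiasis, drawn from the DILIps training data for predicting drug-induced liver injury; call rule not given here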;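 for HepSE cirrhosis: cirrhosis hepatic side effect score taken from the DILIps (drug-induced liver injury prediction) training set; call rule not given here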;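 for HepSE hepatic necrosis: score of hepatic side effects for hepatic necrosis, drawn from the training data of DILIps, a prediction system for drug-induced liver injury; call rule not given here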; for HepSE liver disease: call rule not given here;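 for HepSE liver function tests abnormal: hepatic side effect score taken from the DILIps (drug-induced liver injury prediction system) training data, here covering abnormal liver function test findings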
Hepatotoxicity [3] = system: Hepatotoxicity; remark: listed apart in the source;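 for HepSE cholecystitis: Cholecystitis-related hepatic side effect score drawn from the DILIps (drug-induced liver injury prediction) training data set; call rule not given here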;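 for HepSE cholelithiasis: hepatic side effect score for cholelithiasis, drawn from the DILIps training data for predicting drug-induced liver injury; call rule not given here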;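 for HepSE cirrhosis: cirrhosis hepatic side effect score taken from the DILIps (drug-induced liver injury prediction) training set; call rule not given here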;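 for HepSE hepatic necrosis: score of hepatic side effects for hepatic necrosis, drawn from the training data of DILIps, a prediction system for drug-induced liver injury; call rule not given here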; for HepSE liver disease: call rule not given here;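 for HepSE liver function tests abnormal: hepatic side effect score taken from the DILIps (drug-induced liver injury prediction system) training data, here covering abnormal liver function test findings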
Hepatotoxicity [4] = system: Hepatotoxicity; remark: listed apart in the source;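 for HepSE cholecystitis: Cholecystitis-related hepatic side effect score drawn from the DILIps (drug-induced liver injury prediction) training data set; call rule not given here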;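 for HepSE cholelithiasis: hepatic side effect score for cholelithiasis, drawn from the DILIps training data for predicting drug-induced liver injury; call rule not given here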;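 for HepSE cirrhosis: cirrhosis hepatic side effect score taken from the DILIps (drug-induced liver injury prediction) training set; call rule not given here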;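 for HepSE hepatic necrosis: score of hepatic side effects for hepatic necrosis, drawn from the training data of DILIps, a prediction system for drug-induced liver injury; call rule not given here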; for HepSE liver disease: call rule not given here;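 for HepSE liver function tests abnormal: hepatic side effect score taken from the DILIps (drug-induced liver injury prediction system) training data, here covering abnormal liver function test findings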
Hepatotoxicity [5] = system: Hepatotoxicity; remark: listed apart in the source; for HepSE liver disease: call rule not given here
Hepatotoxicity [6] = system: Hepatotoxicity; remark: listed apart in the source; for HepSE liver disease: call rule not given here
Hepatotoxicity [7] = system: Hepatotoxicity; remark: listed apart in the source
Hepatotoxicity [8] = system: Hepatotoxicity; remark: listed apart in the source
Hepatotoxicity [9] = system: Hepatotoxicity; remark: listed apart in the source
Hepatotoxicity [10] = system: Hepatotoxicity; remark: listed apart in the source
Hepatotoxicity [11] = system: Hepatotoxicity; remark: listed apart in the source
Hepatotoxicity [12] = system: Hepatotoxicity; remark: listed apart in the source
Hepatotoxicity [13] = system: Hepatotoxicity; remark: listed apart in the source
Hepatotoxicity [14] = system: Hepatotoxicity; remark: listed apart in the source

Row | Structure (SMILES) | HepSE_liver function tests abnormal (Hepatotoxicity [1]) | HepSE_cholecystitis (Hepatotoxicity [2]) | HepSE_cholelithiasis (Hepatotoxicity [3]) | HepSE_liver fatty (Hepatotoxicity [4]) | HepSE_hepatic necrosis (Hepatotoxicity [5]) | HepSE_cirrhosis (Hepatotoxicity [6]) | HepSE_bilirubinemia (Hepatotoxicity [7]) | HepSE_liver disease (Hepatotoxicity [8]) | HepSE_Combined Scores (Hepatotoxicity [9]) | HepSE_elevated liver function tests (Hepatotoxicity [10]) | HepSE_hepatic failure (Hepatotoxicity [11]) | HepSE_hepatitis (Hepatotoxicity [12]) | HepSE_jaundice (Hepatotoxicity [13]) | HepSE_hepatomegaly (Hepatotoxicity [14]) | other results
1 | C[C@]12CC[C@H]3[C@@H](CCC4=CC(=O)CC[C@@H]43)[C@@H]1CC[C@@H]2O [NANDROLONE] | 0 | 0 | 0 | 0 | 0 | 0 | 0 | 0 | 0 | 0 | 0 | 0 | 0 | 0 | –
2 | c1ccc2c(CC3=NCCN3)cccc2c1 [NAPHAZOLINE] | 0 | 0 | 0 | 0 | 0 | 0 | 0 | 0 | 0 | 0 | 0 | 0 | 0 | 0 | –
3 | CC(C)[C@H]1CC[C@H](C(=O)N[C@H](Cc2ccccc2)C(=O)O)CC1 [NATEGLINIDE] | 0 | 0 | 0 | 0 | 0 | 0 | 0 | 1 | 3 | 0 | 0 | 1 | 1 | 0 | –
4 | OC(CNCC(O)C1CCc2cc(F)ccc2O1)C1CCc2cc(F)ccc2O1 (configuration not stated) [NEBIVOLOL] | 0 | 0 | 0 | 0 | 0 | 0 | 0 | 0 | 0 | 0 | 0 | 0 | 0 | 0 | –
5 | CCCc1c2oc(C(=O)[O-])cc(=O)c2cc2c(=O)cc(C(=O)[O-])n(CC)c12.[Na+].[Na+] [NEDOCROMIL SODIUM] | 0 | 0 | 0 | 0 | 0 | 0 | 0 | 0 | 0 | 0 | 0 | 0 | 0 | 0 | –
6 | CCc1nn(CCCN2CCN(c3cccc(Cl)c3)CC2)c(=O)n1CCOc1ccccc1 [NEFAZODONE] | 1 | 0 | 0 | 0 | 1 | 0 | 0 | 0 | 3 | 0 | 0 | 1 | 0 | 0 | –
7 | COc1nc(N)nc2c1ncn2[C@@H]1O[C@H](CO)[C@@H](O)[C@@H]1O [NELARABINE] | 0 | 0 | 0 | 0 | 0 | 0 | 0 | 0 | 0 | 0 | 0 | 0 | 0 | 0 | –
8 | Cc1ccnc2c1NC(=O)c1cccnc1N2C1CC1 [NEVIRAPINE] | 1 | 0 | 0 | 0 | 1 | 0 | 0 | 1 | 6 | 0 | 1 | 1 | 1 | 0 | –
9 | COC(=O)C1=C(C)NC(C)=C(C(=O)OCCN(C)Cc2ccccc2)C1c1cccc([N+](=O)[O-])c1 (configuration not stated) [NICARDIPINE] | 0 | 0 | 0 | 0 | 0 | 0 | 0 | 0 | 0 | 0 | 0 | 0 | 0 | 0 | –
10 | CN1CCC[C@H]1c1cccnc1 [NICOTINE] | – | – | – | – | – | – | – | – | – | – | – | – | – | – | HepSE_liver function tests abnormal (Hepatotoxicity [1]; Liver): 0; HepSE_cholecystitis (Hepatotoxicity [2]; Liver): 0; HepSE_cholelithiasis (Hepatotoxicity [3]; Liver): 0; HepSE_liver fatty (Hepatotoxicity [4]; Liver): 0; HepSE_hepatic necrosis (Hepatotoxicity [5]; Liver): 0; HepSE_cirrhosis (Hepatotoxicity [6]; Liver): 0; HepSE_bilirubinemia (Hepatotoxicity [7]; Liver): 0; HepSE_liver disease (Hepatotoxicity [8]; Liver): 0; HepSE_Combined Scores (Hepatotoxicity [9]; Liver): 0; HepSE_elevated liver function tests (Hepatotoxicity [10]; Liver): 0; HepSE_hepatic failure (Hepatotoxicity [11]; Liver): 0; HepSE_hepatitis (Hepatotoxicity [12]; Liver): 0; HepSE_jaundice (Hepatotoxicity [13]; Liver): 0; HepSE_hepatomegaly (Hepatotoxicity [14]; Liver): 0
11 | COC(=O)C1=C(C)NC(C)=C(C(=O)OC)C1c1ccccc1[N+](=O)[O-] [NIFEDIPINE] | 0 | 0 | 0 | 0 | 0 | 0 | 0 | 0 | 2 | 0 | 0 | 1 | 1 | 0 | –
12 | CC1(C)NC(=O)N(c2ccc([N+](=O)[O-])c(C(F)(F)F)c2)C1=O [NILUTAMIDE] | – | – | – | – | – | – | – | – | – | – | – | – | – | – | HepSE_liver function tests abnormal (Hepatotoxicity [1]; Liver): 0; HepSE_cholecystitis (Hepatotoxicity [2]; Liver): 0; HepSE_cholelithiasis (Hepatotoxicity [3]; Liver): 0; HepSE_liver fatty (Hepatotoxicity [4]; Liver): 0; HepSE_hepatic necrosis (Hepatotoxicity [5]; Liver): 0; HepSE_cirrhosis (Hepatotoxicity [6]; Liver): 0; HepSE_bilirubinemia (Hepatotoxicity [7]; Liver): 0; HepSE_liver disease (Hepatotoxicity [8]; Liver): 0; HepSE_Combined Scores (Hepatotoxicity [9]; Liver): 1; HepSE_elevated liver function tests (Hepatotoxicity [10]; Liver): 0; HepSE_hepatic failure (Hepatotoxicity [11]; Liver): 0; HepSE_hepatitis (Hepatotoxicity [12]; Liver): 1; HepSE_jaundice (Hepatotoxicity [13]; Liver): 0; HepSE_hepatomegaly (Hepatotoxicity [14]; Liver): 0
13 | COCCOC(=O)C1=C(C)NC(C)=C(C(=O)OC(C)C)C1c1cccc([N+](=O)[O-])c1 (configuration not stated) [NIMODIPINE] | 0 | 0 | 0 | 0 | 0 | 0 | 0 | 0 | 2 | 0 | 0 | 1 | 1 | 0 | –
